Several values for one entry are separate records, joined by “and”; a condition that tells them apart may be missing. Equal entries are not always repeated. Toxic doses and inconclusive results are not listed. Rule as the data show it: active = T/C of 150% or more; inactive = T/C below 125%.
System: L1210 leukemia ip in BDF1 mice, survival T/C
Assay: NCI In Vivo Anticancer Drug Screen. Data for tumor model L1210 Leukemia (intraperitoneal) in B6D2F1 (BDF1) mice
Conditions: endpoint: mean survival time, higher = longer survival
How it was run: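 Tumor cells were implanted, animals were treated, and survival was followed. The result divides the treated measurement by the vehicle-control measurement.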

[1] = dose: 100.0 mg/kg/injection, schedule: Q01DX009 (ip), vehicle: Klucel (hydroxypropylcellulose) (HPC)
[2] = dose: 100.0 mg/kg/injection, schedule: Q04DX003 (ip), vehicle: Klucel (hydroxypropylcellulose) (HPC)
[3] = dose: 200.0 mg/kg/injection, schedule: Q01DX009 (ip), vehicle: Klucel (hydroxypropylcellulose) (HPC)
[4] = dose: 200.0 mg/kg/injection, schedule: Q04DX003 (ip), vehicle: Klucel (hydroxypropylcellulose) (HPC)
[5] = dose: 400.0 mg/kg/injection, schedule: Q01DX009 (ip), vehicle: Klucel (hydroxypropylcellulose) (HPC)
[6] = dose: 400.0 mg/kg/injection, schedule: Q04DX003 (ip), vehicle: Klucel (hydroxypropylcellulose) (HPC)
[7] = dose: 50.0 mg/kg/injection, schedule: Q01DX001 (ip), vehicle: other
[8] = dose: 100.0 mg/kg/injection, schedule: Q01DX001 (ip), vehicle: other
[9] = dose: 200.0 mg/kg/injection, schedule: Q01DX001 (ip), vehicle: other
[10] = dose: 400.0 mg/kg/injection, schedule: Q01DX001 (ip), vehicle: other
[11] = dose: 25.0 mg/kg/injection, schedule: Q04DX003 (ip), vehicle: Klucel (hydroxypropylcellulose) (HPC)
[12] = dose: 50.0 mg/kg/injection, schedule: Q04DX003 (ip), vehicle: Klucel (hydroxypropylcellulose) (HPC)
[13] = dose: 50.0 mg/kg/injection, schedule: Q04DX002 (ip), vehicle: saline
[14] = dose: 100.0 mg/kg/injection, schedule: Q04DX002 (ip), vehicle: saline
[15] = dose: 100.0 mg/kg/injection, schedule: Q01DX001 (ip), vehicle: saline
[16] = dose: 200.0 mg/kg/injection, schedule: Q01DX001 (ip), vehicle: saline
[17] = dose: 100.0 mg/kg/injection, schedule: Q04DX003 (ip), vehicle: saline with Tween-80
[18] = dose: 200.0 mg/kg/injection, schedule: Q04DX003 (ip), vehicle: saline with Tween-80
[19] = dose: 400.0 mg/kg/injection, schedule: Q04DX003 (ip), vehicle: saline with Tween-80
[20] = dose: 100.0 mg/kg/injection, schedule: Q01DX009 (ip), vehicle: saline with Tween-80
[21] = dose: 200.0 mg/kg/injection, schedule: Q01DX009 (ip), vehicle: saline with Tween-80

Measured: T/C

COc1ccccc1C(=O)NC(=S)Nc1ccc(Cl)c(Cl)c1
inactive: [1] 96 % of control and 87 % of control | dose: 100.0 mg/kg/injection, schedule: Q04DX002 (ip), vehicle: Klucel (hydroxypropylcellulose) (HPC) 95 % of control and 88 % of control | [2] 94 % of control | dose: 200.0 mg/kg/injection, schedule: Q01DX001 (ip), vehicle: Klucel (hydroxypropylcellulose) (HPC) 86 % of control | [3] 96 % of control and 106 % of control | dose: 200.0 mg/kg/injection, schedule: Q04DX002 (ip), vehicle: Klucel (hydroxypropylcellulose) (HPC) 98 % of control and 91 % of control | [4] 92 % of control | dose: 400.0 mg/kg/injection, schedule: Q01DX001 (ip), vehicle: Klucel (hydroxypropylcellulose) (HPC) 107 % of control | [5] 102 % of control | dose: 400.0 mg/kg/injection, schedule: Q04DX002 (ip), vehicle: Klucel (hydroxypropylcellulose) (HPC) 98 % of control and 91 % of control | [6] 102 % of control

CP(=O)(Cc1ccccc1)c1ccccc1 (stereo not given)
inactive: dose: 75.0 mg/kg/injection, schedule: Q01DX001 (ip), vehicle: saline 101 % of control | dose: 150.0 mg/kg/injection, schedule: Q01DX001 (ip), vehicle: saline 103 % of control | dose: 300.0 mg/kg/injection, schedule: Q01DX001 (ip), vehicle: saline 103 % of control

O=C(CBr)c1cccnc1
inactive: dose: 6.25 mg/kg/injection, schedule: Q01DX009 (ip), vehicle: saline 98 % of control | dose: 12.5 mg/kg/injection, schedule: Q01DX009 (ip), vehicle: saline 98 % of control

CC(C)(C)c1cc(O)c(O)c(C(C)(C)C)c1
inactive: dose: 25.0 mg/kg/injection, schedule: Q04DX003 (ip), vehicle: other 104 % of control | dose: 50.0 mg/kg/injection, schedule: Q04DX003 (ip), vehicle: other 104 % of control | dose: 100.0 mg/kg/injection, schedule: Q04DX003 (ip), vehicle: other 105 % of control

CCOC(=O)C1CC(C(=O)OCC)c2nc3ccccc3nc21 (stereo not given)
inactive: [7] 88 % of control | [8] 92 % of control and 86 % of control | [9] 89 % of control | [10] 92 % of control

Cc1ccc(OCC(=O)Nc2ccc(Cl)cc2)c(C)c1
inactive: [8] 95 % of control | [9] 98 % of control | [10] 98 % of control

COc1c(OC)c(OC)c2c(=O)cc(-c3ccc4c(c3)OCO4)oc2c1OC
inactive: [7] 103 % of control | [8] 100 % of control | [9] 100 % of control | [10] 91 % of control

Cc1ncc(CO)c(Nc2ccccc2Cl)n1
inactive: dose: 12.5 mg/kg/injection, schedule: Q04DX003 (ip), vehicle: Klucel (hydroxypropylcellulose) (HPC) 88 % of control | [11] 102 % of control | [12] 98 % of control

COC1OC(COC(=S)SCc2ccccc2)C(O)C(O)C1O (stereo not given)
inactive: [13] 113 % of control | [14] 110 % of control | dose: 200.0 mg/kg/injection, schedule: Q04DX002 (ip), vehicle: saline 92 % of control

NC(=S)c1[nH]cnc1N
inactive: dose: 27.0 mg/kg/injection, schedule: Q01DX015 (ip), vehicle: saline 95 % of control | dose: 40.0 mg/kg/injection, schedule: Q01DX015 (ip), vehicle: saline 93 % of control | dose: 60.0 mg/kg/injection, schedule: Q01DX015 (ip), vehicle: saline 101 % of control | [8] 98 % of control | [15] 110 % of control | [9] 95 % of control | [10] 103 % of control

CN(C)C(=S)SN(C)C(=O)Nc1ccccc1
inactive: [2] 105 % of control | [4] 109 % of control | [6] 107 % of control

CCOC(=O)C1CN(C)C(=O)C1=O (stereo not given)
inactive: dose: 50.0 mg/kg/injection, schedule: Q01DX001 (ip), vehicle: saline 100 % of control | [15] 93 % of control | [16] 87 % of control | dose: 400.0 mg/kg/injection, schedule: Q01DX001 (ip), vehicle: saline 114 % of control

CCCCCCCC(=O)c1ccc(O)cc1
inactive: [17] 109 % of control | [18] 100 % of control | [19] 103 % of control

COc1ccc(OC)c(NC(=O)c2cccc(F)c2)c1
inactive: [1] 97 % of control | [3] 101 % of control | [5] 100 % of control

COC(=O)/C=C(\C(=O)OC)c1c(-c2ccccc2)[nH]c2ccccc12
inactive: dose: 75.0 mg/kg/injection, schedule: Q01DX001 (ip), vehicle: carboxymethylcellulose (CMC) 92 % of control | dose: 150.0 mg/kg/injection, schedule: Q01DX001 (ip), vehicle: carboxymethylcellulose (CMC) 89 % of control | dose: 300.0 mg/kg/injection, schedule: Q01DX001 (ip), vehicle: carboxymethylcellulose (CMC) 94 % of control

Cc1ccc(Cl)cc1S
inactive: dose: 16.0 mg/kg/injection, schedule: Q01DX015 (ip), vehicle: saline 96 % of control | dose: 32.0 mg/kg/injection, schedule: Q01DX015 (ip), vehicle: saline 94 % of control | dose: 64.0 mg/kg/injection, schedule: Q01DX015 (ip), vehicle: saline 100 % of control | dose: 100.0 mg/kg/injection, schedule: Q01DX009 (ip), vehicle: water 100 % of control | dose: 100.0 mg/kg/injection, schedule: Q04DX003 (ip), vehicle: water 94 % of control | dose: 128.0 mg/kg/injection, schedule: Q01DX015 (ip), vehicle: saline 88 % of control

CCCCOc1ccc(/C=N\N=C\c2ccc(OCCCC)cc2)cc1
inactive: [20] 90 % of control | [21] 88 % of control

O=S(=O)(c1ccccc1)C(Br)Br
inactive: dose: 50.0 mg/kg/injection, schedule: Q04DX003 (ip), vehicle: saline with Tween-80 101 % of control | [17] 103 % of control | [18] 101 % of control

ClC1=C(Cl)C(Cl)(Cl)SC1(Cl)Cl
inactive: dose: 3.12 mg/kg/injection, schedule: Q01DX009 (ip), vehicle: acetone 90 % of control | dose: 6.25 mg/kg/injection, schedule: Q01DX009 (ip), vehicle: acetone 101 % of control | dose: 12.5 mg/kg/injection, schedule: Q01DX001 (ip), vehicle: acetone 99 % of control | dose: 12.5 mg/kg/injection, schedule: Q01DX009 (ip), vehicle: acetone 96 % of control | dose: 12.5 mg/kg/injection, schedule: Q04DX003 (ip), vehicle: acetone 92 % of control | dose: 25.0 mg/kg/injection, schedule: Q01DX001 (ip), vehicle: acetone 100 % of control | dose: 50.0 mg/kg/injection, schedule: Q01DX001 (ip), vehicle: acetone 99 % of control

CCOc1ccc(C(=O)CCN2CCOCC2)cc1
inactive: [15] 100 % of control | [16] 118 % of control

C1=C(c2ccccc2)CCCCC1
inactive: [20] 87 % of control | [17] 95 % of control | [21] 96 % of control | [18] 100 % of control | dose: 400.0 mg/kg/injection, schedule: Q01DX009 (ip), vehicle: saline with Tween-80 99 % of control | [19] 98 % of control

CC[N+](C)(C)c1ncnc2nc[nH]c12
inactive: dose: 50.0 mg/kg/injection, schedule: Q01DX009 (ip), vehicle: saline 103 % of control | dose: 50.0 mg/kg/injection, schedule: Q04DX003 (ip), vehicle: saline 95 % of control | [15] 106 % of control | dose: 100.0 mg/kg/injection, schedule: Q01DX009 (ip), vehicle: saline 110 % of control | dose: 100.0 mg/kg/injection, schedule: Q04DX003 (ip), vehicle: saline 100 % of control | [16] 111 % of control | dose: 200.0 mg/kg/injection, schedule: Q04DX003 (ip), vehicle: saline 96 % of control

O=C(Sc1c[nH]c(=O)[nH]c1=O)c1ccc(N(CCCl)CCCl)cc1
inactive: [11] 96 % of control | [12] 102 % of control | [2] 94 % of control | [4] 100 % of control | [6] 105 % of control

C=CS(=O)(=O)CC
inactive: dose: 25.0 mg/kg/injection, schedule: Q04DX002 (ip), vehicle: saline 119 % of control | [13] 102 % of control | [14] 102 % of control
